# Like-named read-outs stand apart in the source and are kept apart here.
# Legend:
# Test in all cases: biochemical
# Parameters in all cases: Eurofins KinaseProfiler full panel at Km ATP, residual kinase activity (%) relative to DMSO
# [1] = target: PAK6(h) (Homo sapiens, UniProt Q9NQU5)
# Summary of the method: (§1)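 Compounds screened at 10 µM in radiometric kinase activity assays at Km ATP, reported as remaining kinase activity (%). A KINOMEscan competition-binding screen at 10 µM measured DNA-tagged kinase retained on immobilized active-site ligand by qPCR.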
# [2] = target: T1, MEK2(h) (Homo sapiens, UniProt P36507)
# T1 construct: gene MAP2K2
# T1 sequence (P36507 whole entry): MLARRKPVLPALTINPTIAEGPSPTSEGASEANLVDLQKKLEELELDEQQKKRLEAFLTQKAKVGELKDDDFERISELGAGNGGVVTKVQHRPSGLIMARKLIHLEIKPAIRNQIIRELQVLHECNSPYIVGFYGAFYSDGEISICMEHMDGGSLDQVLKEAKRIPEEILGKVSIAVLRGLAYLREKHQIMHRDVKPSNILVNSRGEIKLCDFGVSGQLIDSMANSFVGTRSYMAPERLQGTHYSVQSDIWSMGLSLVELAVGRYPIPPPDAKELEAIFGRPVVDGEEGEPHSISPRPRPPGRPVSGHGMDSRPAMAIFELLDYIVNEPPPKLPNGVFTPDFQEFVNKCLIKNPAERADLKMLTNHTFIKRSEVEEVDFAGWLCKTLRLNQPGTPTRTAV
# Summary of the method: as §1
# [3] = target: Flt4(h) (Homo sapiens, UniProt P35916)
# Summary of the method: as §1
# [4] = target: CLK2(h) (Homo sapiens, UniProt P49760)
# Summary of the method: as §1
# [5] = target: T2, PI3 Kinase (p110d/p85a)(h) (Homo sapiens, UniProt O00329)
# T2 construct: gene PIK3CD
# T2 sequence (O00329 whole entry): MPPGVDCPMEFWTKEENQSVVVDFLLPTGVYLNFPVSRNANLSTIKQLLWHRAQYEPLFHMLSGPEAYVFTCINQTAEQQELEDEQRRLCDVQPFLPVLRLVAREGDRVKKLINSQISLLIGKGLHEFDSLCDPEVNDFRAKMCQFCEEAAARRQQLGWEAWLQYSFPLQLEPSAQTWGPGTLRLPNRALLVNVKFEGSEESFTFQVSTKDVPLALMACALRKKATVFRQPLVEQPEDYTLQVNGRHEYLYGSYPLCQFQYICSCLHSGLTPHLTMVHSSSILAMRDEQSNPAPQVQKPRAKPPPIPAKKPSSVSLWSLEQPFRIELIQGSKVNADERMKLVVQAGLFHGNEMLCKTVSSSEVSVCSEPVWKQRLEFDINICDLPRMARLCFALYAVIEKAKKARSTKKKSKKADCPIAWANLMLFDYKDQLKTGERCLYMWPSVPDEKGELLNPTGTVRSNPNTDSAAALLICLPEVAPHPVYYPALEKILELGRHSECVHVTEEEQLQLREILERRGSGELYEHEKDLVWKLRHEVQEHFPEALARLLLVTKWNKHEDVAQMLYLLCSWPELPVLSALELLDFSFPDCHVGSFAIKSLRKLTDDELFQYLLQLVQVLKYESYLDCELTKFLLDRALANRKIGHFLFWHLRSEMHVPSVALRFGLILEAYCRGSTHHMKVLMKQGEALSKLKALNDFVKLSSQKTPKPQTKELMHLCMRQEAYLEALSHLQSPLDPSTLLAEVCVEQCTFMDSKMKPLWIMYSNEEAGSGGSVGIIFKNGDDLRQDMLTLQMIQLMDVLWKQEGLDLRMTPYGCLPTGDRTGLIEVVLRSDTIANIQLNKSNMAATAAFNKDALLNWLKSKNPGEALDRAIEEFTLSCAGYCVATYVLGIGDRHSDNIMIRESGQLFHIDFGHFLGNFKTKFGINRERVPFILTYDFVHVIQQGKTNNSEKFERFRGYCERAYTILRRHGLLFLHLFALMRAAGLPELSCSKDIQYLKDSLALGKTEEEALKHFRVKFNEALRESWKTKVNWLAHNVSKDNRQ
# T2 sequence (P27986 whole entry partner): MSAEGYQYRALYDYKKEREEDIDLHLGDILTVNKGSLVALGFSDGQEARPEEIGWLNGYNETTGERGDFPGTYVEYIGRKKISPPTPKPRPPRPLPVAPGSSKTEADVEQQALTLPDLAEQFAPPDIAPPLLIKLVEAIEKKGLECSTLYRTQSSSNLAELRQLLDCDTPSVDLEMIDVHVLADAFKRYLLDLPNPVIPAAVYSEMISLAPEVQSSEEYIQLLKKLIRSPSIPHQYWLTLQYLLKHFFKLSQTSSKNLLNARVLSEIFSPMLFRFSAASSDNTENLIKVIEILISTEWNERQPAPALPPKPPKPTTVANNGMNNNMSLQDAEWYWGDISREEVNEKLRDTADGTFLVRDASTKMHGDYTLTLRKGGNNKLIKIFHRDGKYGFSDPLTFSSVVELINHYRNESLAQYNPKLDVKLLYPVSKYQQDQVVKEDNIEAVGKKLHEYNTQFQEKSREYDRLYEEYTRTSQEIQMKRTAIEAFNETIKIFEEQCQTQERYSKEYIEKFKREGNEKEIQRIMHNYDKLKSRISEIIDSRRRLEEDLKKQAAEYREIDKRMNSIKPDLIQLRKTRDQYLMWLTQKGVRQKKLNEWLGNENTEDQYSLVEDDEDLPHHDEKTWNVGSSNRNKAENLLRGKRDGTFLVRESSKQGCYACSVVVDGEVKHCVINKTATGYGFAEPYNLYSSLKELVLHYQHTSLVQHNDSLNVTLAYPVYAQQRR
# Summary of the method: as §1
# [6] = target: FGFR2(h) (Homo sapiens, UniProt P21802)
# FGFR2(h), sequence (P21802 whole entry): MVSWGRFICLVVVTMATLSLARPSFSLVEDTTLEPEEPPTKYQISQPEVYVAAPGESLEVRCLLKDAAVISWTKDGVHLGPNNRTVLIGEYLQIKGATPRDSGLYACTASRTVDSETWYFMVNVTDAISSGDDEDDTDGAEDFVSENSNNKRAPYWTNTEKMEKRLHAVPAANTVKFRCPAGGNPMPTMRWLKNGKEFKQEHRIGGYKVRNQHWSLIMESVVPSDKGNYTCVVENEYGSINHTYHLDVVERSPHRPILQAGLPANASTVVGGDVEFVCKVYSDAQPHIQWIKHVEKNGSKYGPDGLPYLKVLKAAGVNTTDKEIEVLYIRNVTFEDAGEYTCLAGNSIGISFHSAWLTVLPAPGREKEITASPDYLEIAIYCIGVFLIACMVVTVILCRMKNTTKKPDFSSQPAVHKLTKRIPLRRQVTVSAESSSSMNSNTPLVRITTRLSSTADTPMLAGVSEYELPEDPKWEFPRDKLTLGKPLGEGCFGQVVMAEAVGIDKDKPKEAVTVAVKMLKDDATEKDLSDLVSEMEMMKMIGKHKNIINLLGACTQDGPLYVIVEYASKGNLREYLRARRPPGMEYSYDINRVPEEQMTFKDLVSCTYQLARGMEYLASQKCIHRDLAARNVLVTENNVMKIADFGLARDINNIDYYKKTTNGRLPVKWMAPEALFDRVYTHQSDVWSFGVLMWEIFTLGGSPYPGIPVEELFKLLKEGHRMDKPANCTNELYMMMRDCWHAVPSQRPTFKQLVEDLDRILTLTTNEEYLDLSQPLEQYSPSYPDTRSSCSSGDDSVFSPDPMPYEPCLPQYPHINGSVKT
# Summary of the method: as §1
# [7] = target: T3, PI3 Kinase (p110a/p85a)(m) (Mus musculus, UniProt P42337)
# T3 construct: gene Pik3ca
# Summary of the method: as §1
# [8] = target: T4, PI3 Kinase (p110a/p85a)(h) (Homo sapiens, UniProt P42336)
# T4 construct: gene PIK3CA
# T4 sequence (P42336 whole entry): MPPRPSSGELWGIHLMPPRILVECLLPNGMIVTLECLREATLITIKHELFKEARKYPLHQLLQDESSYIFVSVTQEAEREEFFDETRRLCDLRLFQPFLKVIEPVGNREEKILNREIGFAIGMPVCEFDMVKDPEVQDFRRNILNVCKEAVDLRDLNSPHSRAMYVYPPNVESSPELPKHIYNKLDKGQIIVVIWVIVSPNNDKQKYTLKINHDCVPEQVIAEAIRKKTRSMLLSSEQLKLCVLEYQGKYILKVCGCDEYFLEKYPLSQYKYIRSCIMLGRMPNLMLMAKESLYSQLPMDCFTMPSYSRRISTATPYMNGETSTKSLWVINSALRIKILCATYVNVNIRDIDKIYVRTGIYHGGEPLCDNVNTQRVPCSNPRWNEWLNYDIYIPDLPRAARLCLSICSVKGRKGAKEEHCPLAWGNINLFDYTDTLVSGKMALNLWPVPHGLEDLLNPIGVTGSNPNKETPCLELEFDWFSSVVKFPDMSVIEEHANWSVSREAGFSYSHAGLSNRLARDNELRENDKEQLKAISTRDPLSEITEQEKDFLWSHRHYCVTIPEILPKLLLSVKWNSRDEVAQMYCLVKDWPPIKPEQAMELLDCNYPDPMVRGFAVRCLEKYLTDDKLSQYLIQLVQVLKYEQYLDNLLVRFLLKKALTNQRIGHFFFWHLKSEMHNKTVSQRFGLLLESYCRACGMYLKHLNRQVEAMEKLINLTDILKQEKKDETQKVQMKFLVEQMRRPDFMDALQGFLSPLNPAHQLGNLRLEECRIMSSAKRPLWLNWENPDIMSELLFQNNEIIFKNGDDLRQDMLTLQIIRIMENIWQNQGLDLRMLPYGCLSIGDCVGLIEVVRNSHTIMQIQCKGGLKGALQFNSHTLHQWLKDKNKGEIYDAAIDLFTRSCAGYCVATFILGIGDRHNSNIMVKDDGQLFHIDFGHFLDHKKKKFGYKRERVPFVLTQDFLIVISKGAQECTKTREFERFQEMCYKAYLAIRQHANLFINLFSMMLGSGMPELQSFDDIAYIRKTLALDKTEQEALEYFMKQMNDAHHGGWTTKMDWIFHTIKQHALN
# T4 sequence (P27986 whole entry partner): as the sequence (P27986 whole entry partner) above
# Summary of the method: as §1
# [9] = target: T5, TAO1(h) (Homo sapiens, UniProt Q7L7X3)
# T5 construct: gene TAOK1
# T5 sequence (Q7L7X3 1-1001): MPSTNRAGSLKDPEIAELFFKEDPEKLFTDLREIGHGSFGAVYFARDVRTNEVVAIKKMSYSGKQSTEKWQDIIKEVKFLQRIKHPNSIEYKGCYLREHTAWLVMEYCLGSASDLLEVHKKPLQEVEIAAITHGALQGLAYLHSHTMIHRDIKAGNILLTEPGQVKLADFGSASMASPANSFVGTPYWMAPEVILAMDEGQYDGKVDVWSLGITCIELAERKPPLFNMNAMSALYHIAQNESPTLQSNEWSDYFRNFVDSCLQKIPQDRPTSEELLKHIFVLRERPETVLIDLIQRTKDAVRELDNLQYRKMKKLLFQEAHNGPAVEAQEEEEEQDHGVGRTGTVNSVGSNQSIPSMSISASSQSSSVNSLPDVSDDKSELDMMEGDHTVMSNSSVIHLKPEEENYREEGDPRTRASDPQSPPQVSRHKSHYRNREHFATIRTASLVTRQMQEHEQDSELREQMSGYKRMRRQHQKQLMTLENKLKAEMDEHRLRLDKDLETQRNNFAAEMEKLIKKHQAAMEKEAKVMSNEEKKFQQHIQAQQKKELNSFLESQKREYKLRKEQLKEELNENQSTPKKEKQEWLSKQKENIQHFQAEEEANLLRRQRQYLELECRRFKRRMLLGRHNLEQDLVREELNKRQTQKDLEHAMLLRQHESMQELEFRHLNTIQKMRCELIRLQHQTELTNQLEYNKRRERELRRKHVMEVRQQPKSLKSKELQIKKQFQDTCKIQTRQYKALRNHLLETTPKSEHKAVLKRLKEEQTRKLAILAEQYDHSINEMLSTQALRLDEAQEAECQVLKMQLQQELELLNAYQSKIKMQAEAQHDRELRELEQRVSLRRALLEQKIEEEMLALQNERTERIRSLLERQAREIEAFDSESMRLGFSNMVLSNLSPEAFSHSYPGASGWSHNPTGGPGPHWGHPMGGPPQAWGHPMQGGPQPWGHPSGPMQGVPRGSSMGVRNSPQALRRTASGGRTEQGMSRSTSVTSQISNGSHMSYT
# Summary of the method: as §1
# [10] = target: T6, CaMKIIα(h) (Homo sapiens, UniProt Q9UQM7)
# T6 construct: gene CAMK2A
# Summary of the method: as §1
# [11] = read-out: Residual activity (%) 5ay
# [12] = read-out: Residual activity (%) Spautin-1 5aa
# [13] = read-out: Residual activity (%) 5at
# [14] = read-out: Residual activity (%) 5as
# PAK6(h), sequence (Q9NQU5 whole entry): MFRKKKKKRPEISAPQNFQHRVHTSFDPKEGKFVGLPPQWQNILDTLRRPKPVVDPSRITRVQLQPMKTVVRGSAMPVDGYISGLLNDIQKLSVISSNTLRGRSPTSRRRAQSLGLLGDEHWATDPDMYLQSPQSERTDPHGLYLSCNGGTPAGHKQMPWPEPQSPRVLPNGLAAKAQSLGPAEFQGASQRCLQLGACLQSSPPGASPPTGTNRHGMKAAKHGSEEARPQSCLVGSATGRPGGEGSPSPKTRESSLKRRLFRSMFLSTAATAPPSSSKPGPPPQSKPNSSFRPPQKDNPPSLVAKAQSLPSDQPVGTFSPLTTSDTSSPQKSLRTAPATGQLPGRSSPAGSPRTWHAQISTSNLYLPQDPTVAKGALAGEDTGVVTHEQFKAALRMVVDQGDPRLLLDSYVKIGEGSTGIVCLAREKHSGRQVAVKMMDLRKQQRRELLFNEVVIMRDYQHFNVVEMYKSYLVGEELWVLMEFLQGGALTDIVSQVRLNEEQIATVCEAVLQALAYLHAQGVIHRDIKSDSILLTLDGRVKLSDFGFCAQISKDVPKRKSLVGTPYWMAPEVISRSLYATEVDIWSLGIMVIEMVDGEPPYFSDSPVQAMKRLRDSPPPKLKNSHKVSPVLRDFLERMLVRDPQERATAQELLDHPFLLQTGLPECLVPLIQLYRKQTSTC
compound,measurement,setting,value
"COc1ccc2ncnc(Nc3cccc(F)c3)c2c1 [5ay, N-(3-Fluorophenyl)-6-Methoxy-4-Quinazolinamine]",remaining activity at 10 µM,[1]; [11],86%
same,remaining activity at 10 µM,[2]; [11],95%
same,remaining activity at 10 µM,[3]; [11],66%
same,remaining activity at 10 µM,[4]; [11],43%
same,remaining activity at 10 µM,[5]; [11],96%
same,remaining activity at 10 µM,[6]; [11],96%
same,remaining activity at 10 µM,[7]; [11],84%
same,remaining activity at 10 µM,[8]; [11],101%
same,remaining activity at 10 µM,[9]; [11],95%
same,remaining activity at 10 µM,[10]; [11],58%
"Fc1ccc(CNc2ncnc3ccc(F)cc23)cc1 [5aa, 6-Fluoro-N-(4-fluorobenzyl)-4-Quinazolinamine]",remaining activity at 10 µM,[1]; [12],92%
same,remaining activity at 10 µM,[2]; [12],92%
same,remaining activity at 10 µM,[3]; [12],92%
same,remaining activity at 10 µM,[4]; [12],47%
same,remaining activity at 10 µM,[5]; [12],93%
same,remaining activity at 10 µM,[6]; [12],91%
same,remaining activity at 10 µM,[7]; [12],86%
same,remaining activity at 10 µM,[8]; [12],100%
same,remaining activity at 10 µM,[9]; [12],99%
same,remaining activity at 10 µM,[10]; [12],94%
"Fc1ccc2ncnc(NCCc3ccc(Cl)cc3)c2c1 [5at, N-[2-(4-Chlorophenyl)Ethyl]-6-Fluoro-4-Quinazolinamine]",remaining activity at 10 µM,[1]; [13],92%
same,remaining activity at 10 µM,[2]; [13],99%
same,remaining activity at 10 µM,[3]; [13],90%
same,remaining activity at 10 µM,[4]; [13],60%
same,remaining activity at 10 µM,[5]; [13],80%
same,remaining activity at 10 µM,[6]; [13],84%
same,remaining activity at 10 µM,[7]; [13],82%
same,remaining activity at 10 µM,[8]; [13],94%
same,remaining activity at 10 µM,[9]; [13],97%
same,remaining activity at 10 µM,[10]; [13],89%
"Fc1ccc(CCNc2ncnc3ccc(F)cc23)cc1 [5as, 6-Fluoro-N-[2-(4-Fluorophenyl)Ethyl]-4-Quinazolinamine]",remaining activity at 10 µM,[1]; [14],84%
same,remaining activity at 10 µM,[2]; [14],96%
same,remaining activity at 10 µM,[3]; [14],81%
same,remaining activity at 10 µM,[4]; [14],53%
same,remaining activity at 10 µM,[5]; [14],84%
same,remaining activity at 10 µM,[6]; [14],99%
same,remaining activity at 10 µM,[7]; [14],83%
same,remaining activity at 10 µM,[8]; [14],103%
same,remaining activity at 10 µM,[9]; [14],104%
same,remaining activity at 10 µM,[10]; [14],88%

# Reference: article PMC7827406, “Structure–Activity Relationship (SAR) Study of Spautin-1 to Entail the Discovery of Novel NEK4 Inhibitors” (International Journal of Molecular Sciences, 2021)
